One assay has as its target Opioid receptor delta 1 (Bos taurus, UniProt F1N083).
The target in the next assay is Beta-arrestin-1 (Oryctolagus cuniculus, UniProt Q95223).
Assay [1] addresses Delta-type opioid receptor (Mus musculus, UniProt P32300).

Where “and” joins values, the source holds several entries; their conditions need not be identical. Identical values can stand only once.

Broadly, the Ki is a measure of affinity in units of concentration, obtained from inhibition or displacement.

Opioid receptor delta 1, sequence (F1N083 whole entry): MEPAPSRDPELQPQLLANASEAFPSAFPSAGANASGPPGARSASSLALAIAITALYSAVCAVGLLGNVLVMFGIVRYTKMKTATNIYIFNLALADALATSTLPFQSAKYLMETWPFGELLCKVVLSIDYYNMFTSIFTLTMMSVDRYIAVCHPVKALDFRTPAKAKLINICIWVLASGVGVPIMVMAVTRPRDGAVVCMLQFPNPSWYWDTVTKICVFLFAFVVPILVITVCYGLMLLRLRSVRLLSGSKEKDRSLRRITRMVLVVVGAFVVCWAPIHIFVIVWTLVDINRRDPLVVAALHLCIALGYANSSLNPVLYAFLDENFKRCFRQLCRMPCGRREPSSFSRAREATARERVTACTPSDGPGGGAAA
Beta-arrestin-1, sequence (Q95223 whole entry): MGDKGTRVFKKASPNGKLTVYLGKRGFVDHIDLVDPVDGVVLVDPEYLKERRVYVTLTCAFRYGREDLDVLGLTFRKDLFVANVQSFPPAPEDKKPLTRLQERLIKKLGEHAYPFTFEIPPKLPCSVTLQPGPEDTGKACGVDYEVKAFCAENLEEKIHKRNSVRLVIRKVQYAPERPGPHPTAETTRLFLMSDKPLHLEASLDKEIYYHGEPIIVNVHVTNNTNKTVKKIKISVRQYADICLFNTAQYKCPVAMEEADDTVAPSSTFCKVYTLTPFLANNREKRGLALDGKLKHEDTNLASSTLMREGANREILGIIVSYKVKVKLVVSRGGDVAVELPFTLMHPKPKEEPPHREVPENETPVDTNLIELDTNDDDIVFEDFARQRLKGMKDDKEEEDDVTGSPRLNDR
Delta-type opioid receptor, sequence (P32300 whole entry): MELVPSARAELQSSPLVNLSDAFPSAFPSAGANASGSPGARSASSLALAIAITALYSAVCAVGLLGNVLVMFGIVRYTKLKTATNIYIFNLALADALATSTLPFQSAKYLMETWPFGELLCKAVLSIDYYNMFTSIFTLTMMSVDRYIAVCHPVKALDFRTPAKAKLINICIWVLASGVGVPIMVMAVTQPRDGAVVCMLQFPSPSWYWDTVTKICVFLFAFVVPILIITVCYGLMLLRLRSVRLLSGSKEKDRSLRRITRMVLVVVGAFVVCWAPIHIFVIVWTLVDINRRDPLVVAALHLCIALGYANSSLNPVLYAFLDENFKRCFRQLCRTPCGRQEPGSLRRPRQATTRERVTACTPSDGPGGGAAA

Consider `CC(C)C[C@H](NC(=O)[C@H](Cc1ccccc1)NC(=O)CNC(=O)[C@@H](C)NC(=O)[C@@H](N)Cc1ccc(O)cc1)C(=O)O` [DALLE], for which the Ki at Opioid receptor delta 1 is 1.8 nM and 7.4 nM; on Beta-arrestin-1, 3.6 nM. Turning to `CN1CC[C@]23c4c5ccc(O)c4O[C@H]2[C@@H](O)CCC3[C@H]1C5` (stereo partly drawn) [DIHYDROMORPHINE], the Ki at Opioid receptor delta 1 is 38.1 nM and 35.6 nM; in assay [1] it was 127 nM. `C=CCN1CC[C@]23c4c5ccc(O)c4O[C@H]2C(=O)CC[C@@]3(O)[C@H]1C5` [[17-(2,3-3H-2-propenyl)]-4,5a-epoxy-3,14-dihydroxymorphinan-6-one] returned a Ki at Beta-arrestin-1 of 67.4 nM. Regarding `CC(C)C[C@@H](NC(=O)[C@H](Cc1ccccc1)NC(=O)CNC(=O)[C@@H](C)NC(=O)[C@@H](N)Cc1ccc(O)cc1)C(=O)O` [[D-Ala2-D-Leu5]enkephalin], the Ki at Opioid receptor delta 1 was 1.8 nM and 9.7 nM. With “H-YGGFMTSEKSQTPLVTLFKNAIVKNAHKKGQ-OH [Beta-Endorphin]”, the Ki is 14 nM and 58.1 nM at Opioid receptor delta 1; 21 nM on Beta-arrestin-1.

(Values after BindingDB's records for PubMed 6248635 (Stanford University, 1980).)
